Results as given in article PMC7940618, “Specific inhibition of the Survivin–CRM1 interaction by peptide-modified molecular tweezers” (Nature Communications, 2021).
Peptide text beside a SMILES is read from it.

Tests used:
Type in all cases: binding
[1] = target: T1, Survivin120 (Homo sapiens, UniProt O15392); assay: ITC titration of tweezers with Survivin120 wildtype; settings: ITC, Survivin120 WT; for Kd: PBS pH 7.4, 25 °C, one set of sites model, mean ± SEM of fit
T1 construct: the only published NMR structure originated from a truncated Survivin (aa 1-120) with improved solubility; GST with PreScission site (N); made in house; host or cells: Escherichia coli soluBL21
Experimental: The interaction between the tweezers and Survivin was studied by isothermal titration calorimetry (ITC) and NMR spectroscopy. So far, the only published NMR structure originated from a truncated Survivin (aa 1-120) with improved solubility. […] Since the truncated construct still contains all relevant parts of the protein and gives excellent NMR spectra (SI5), we chose it for all our in vitro experiments and denote it as Survivin120 in the following results.
(§1) ITC was performed with a MicroCal iTC200 from Malvern Panalytical in PBS, pH 7.4 at 25 °C with molecular tweezers in the cell and Survivin120 in the titration syringe. The protein was dialyzed overnight at 4 °C against the PBS buffer. Ligands were dissolved in the respective dialysis buffer. Then, 300 µM TW were titrated with 300 µM Survivin120 WT or 321 µM Survivin120 K90/103T. Then, 100 µM TW-ELTL, TW-ELTLGEFL, or TW-LFEEGLLT was titrated with 1.2 mM Survivin120 WT or 2.5 mM Survivin120 K90/103T. For reverse titrations, either 33.3 or 34.4 µM Survivin120 in the cell was titrated with 5 mM TW or TW-ELTL in the syringe, respectively. All titrations were performed in PBS, pH 7.4 at 25 °C. Then, 1.5 μL injections were used with 120 s spacing time between injections. The injection rate was set to 0.5 µL/s and the reference power was 5 µcal/s. ITC thermograms were fitted to a one set of sites model with the software Origin (v7.0552) provided with the instrument. Heat of dilution was subtracted as constant from each data point.
ITC thermograms were fitted to a one set of sites model with the software Origin provided with the instrument. Heat of dilution was subtracted as constant from each data point. From three independent experiments (n = 3), one representative example was depicted, and thermodynamic data were derived thereof. For pull-down experiments, only the representative quantification of the depicted western blot is shown. […] Fluorescence anisotropy graphs were generated with GraphPad Prism 5.0. Depicted error bars represent the standard deviation of three independent titrations.

[2] = target: T1, Survivin120; assay: Reverse ITC titration (tweezer into Survivin120); settings: tweezer added to constant Survivin
Experimental: as §1
Supplementary Figure SI8: Reverse ITC titrations. Titration of 33.3 μM (a) and 34,4 µM (b) Survivin120 in the cell with 5 mM unmodified tweezer TW (a) and TW-ELTL (b) in the syringe.
All titrations (n = 1) were performed in PBS, pH 7.4 at 25 °C. Top row: raw heating power over time subtracted by control heating power of Survivin120 titration into PBS. […]

[3] = target: T2, Survivin–CRM1 complex (Homo sapiens, UniProt O15392); assay: Pull-down with 293T lysate (Survivin142-HA), GST-CRM1 bait, RanQ69L, dGTP; settings: pull-down, tweezer 0.01 to 200 µM, 293T lysate
T2 construct: expressed in transfected cells; host or cells: 293T cells (Survivin142-HA); E. coli soluBL21 (GST-CRM1, RanQ69L)
Experimental: We next investigated whether tweezers inhibit the Survivin–CRM1 complex formation in vitro. The effects of the unmodified and peptide-linked tweezers were analyzed via pull-down experiments with 293T lysates containing overexpressed HA-tagged Survivin142, recombinant GST-CRM1 as bait protein, and tweezers (Fig. 6). The parent and ELTL-linked tweezer required 10–50 µM to disrupt the Survivin–CRM1 complex. […] In order to provide experimental evidence for the sequence selectivity of the TW-ELTLGEFL ligand, a scrambled analog was synthesized and clicked to the tweezer, resulting in the hybrid molecule TW-LFEEGLLT (SI1, SI2, and SI10). […] Instead, the slight chemical shift perturbations might be due to the spatial proximity of the peptide moiety to the anchoring residue. All those results strongly indicate that the additional binding energy from the NES interface was lost due to scrambling and thus point toward specific recognition as the reason for increased selectivity and interference with the Survivin–CRM1 interaction. Of note, very high tweezer concentrations (100–200 µM) also weakened GST-CRM1 binding to GSH-Sepharose beads, most likely by low-affinity binding to the GST protein.
All pull-down assays were performed at room temperature in pull-down buffer (PBS, pH 7.4, 1 mM DTT, 0.02 Triton X-100). GST fusion proteins were immobilized on 50 μL GSH-coated Sepharose 4B beads from GE Healthcare. The beads were prior equilibrated and blocked with 500 μL pull-down blocking buffer (PBS, pH 7.4, 1 (w/v) BSA, 1 mM DTT, 0.02 (v/v) Triton X-100) for 1 h to prevent unspecific binding.
For analysis of the effective inhibitory tweezer concentration, 200 μg 293T lysate with overexpressed Survivin142-HA was preincubated without ligand or with different concentrations (10 nM to 200 μM) of unmodified tweezer TW, TW-ELTL, TW-ELTLGEFL, or TW-LFEEGLLT for 1 h and then mixed with 35 μg GST-CRM1, 55 μg RanQ69L, and 2 mM dGTP. GSH-beads were incubated with this protein mixture for 2 h under rotation. […]
Samples of input and beads taken during pull-down experiments were ran on 12.5 SDS gels and transferred onto 0.2 µM PVDF membranes (Amersham Hybond P 0.2) using a PerfectBlue™ tank electro blotter (Peqlab) at 350 mA for 150 min. […] Chemiluminescence was detected and imaged using the Pierce ECL Plus Western Blotting Substrate kit (Thermo Fisher Scientific) and Chemidoc system (Bio-Rad) or film processor Cawomat 2000 IR (CAWO). Western blots were analyzed by densitometric analysis with ImageJ version 1.52p (U.S. National Institutes of Health), measuring the mean gray intensity of protein bands. […]

T1 sequence (O15392 1-120): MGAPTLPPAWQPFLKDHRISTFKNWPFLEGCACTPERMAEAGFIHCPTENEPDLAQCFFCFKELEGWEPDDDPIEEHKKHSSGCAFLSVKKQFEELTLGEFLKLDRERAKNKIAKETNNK
T2 sequence (O15392 whole entry, one chain of several): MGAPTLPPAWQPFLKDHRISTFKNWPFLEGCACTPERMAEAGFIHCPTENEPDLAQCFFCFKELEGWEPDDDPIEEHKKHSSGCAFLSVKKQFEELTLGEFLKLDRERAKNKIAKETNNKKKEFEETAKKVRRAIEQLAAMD

For `O=P(O)(O)Oc1c2c(c(OP(=O)(O)O)c3c1C1CC3c3cc4c(cc31)C1CC4c3ccccc31)C1CC2c2cc3c(cc21)C1CC3c2ccccc21` [TW, reference compound], the “-TΔS” value [1] was -4.7 kcal, the ΔG [1] was -6.0 kcal and the ΔH [1] was -1.3 kcal. For the same compound, the Kd [1] was 38 µM, the “tweezer molecules accommodated on the protein surface (kink at fold tweezer excess)” value [2] was 4–5 and the “concentration required to disrupt the Survivin–CRM1 complex” value [3] was 10 to 50 µM.
Compound `CC(C)C[C@H](NC(=O)[C@H](Cc1ccccc1)NC(=O)[C@H](CCC(=O)O)NC(=O)CNC(=O)[C@H](CC(C)C)NC(=O)[C@@H](NC(=O)[C@H](CC(C)C)NC(=O)[C@H](CCC(=O)O)NC(=O)Cn1cc(CCOP(=O)(O)Oc2c3c(c(OP(=O)(O)O)c4c2C2CC4c4cc5c(cc42)C2CC5c4ccccc42)C2CC3c3cc4c(cc32)C2CC4c3ccccc32)nn1)[C@@H](C)O)C(=O)O` [TW-ELTLGEFL] (HELM PEPTIDE1{[O=C(Cn1cc(CCOP(=O)(O)Oc2c3c(c(OP(=O)(O)O)c4c2C2CC4c4cc5c(cc42)C2CC5c4ccccc42)C2CC3c3cc4c(cc32)C2CC4c3ccccc32)nn1)[*:2]].E.L.T.L.G.E.F.L}$$$$V2.0) has a Kd [1] of 19 µM.
`CC(C)C[C@H](NC(=O)[C@@H](NC(=O)[C@H](CC(C)C)NC(=O)[C@H](CCC(=O)O)NC(=O)Cn1cc(CCOP(=O)(O)Oc2c3c(c(OP(=O)(O)O)c4c2[C@H]2C[C@@H]4c4cc5c(cc42)[C@H]2C[C@@H]5c4ccccc42)[C@H]2C[C@@H]3c3cc4c(cc32)[C@H]2C[C@@H]4c3ccccc32)nn1)[C@@H](C)O)C(=O)O` [TW-ELTL] was tested, and the “-TΔS” value [1] was -3.8 kcal, the ΔG [1] was -6.3 kcal and the ΔH [1] was -2.5 kcal. The Kd [1] was 24 µM, the “tweezer molecules accommodated on the protein surface (kink at fold tweezer excess)” value [2] was 4–5 and the “concentration required to disrupt the Survivin–CRM1 complex” value [3] was 10 to 50 µM.
